Laboratory results taken from patent publication US20210395239A1 (Hoffmann-La Roche Inc., priority 2018, published 2021).

target: T1, human TLR7 (Homo sapiens, UniProt Q9NYK1); assay: HEK293-Blue-hTLR-7 cells assay (SEAP reporter, R848 stimulation); type: cell-based; conditions: HEK293-Blue-hTLR7 cells, R848, 20 hrs; read-out: HEK/hTLR7 IC50
T1 construct: host or cells: HEK293 (HEK-Blue hTLR7)
T1 sequence (Q9NYK1 27-1049): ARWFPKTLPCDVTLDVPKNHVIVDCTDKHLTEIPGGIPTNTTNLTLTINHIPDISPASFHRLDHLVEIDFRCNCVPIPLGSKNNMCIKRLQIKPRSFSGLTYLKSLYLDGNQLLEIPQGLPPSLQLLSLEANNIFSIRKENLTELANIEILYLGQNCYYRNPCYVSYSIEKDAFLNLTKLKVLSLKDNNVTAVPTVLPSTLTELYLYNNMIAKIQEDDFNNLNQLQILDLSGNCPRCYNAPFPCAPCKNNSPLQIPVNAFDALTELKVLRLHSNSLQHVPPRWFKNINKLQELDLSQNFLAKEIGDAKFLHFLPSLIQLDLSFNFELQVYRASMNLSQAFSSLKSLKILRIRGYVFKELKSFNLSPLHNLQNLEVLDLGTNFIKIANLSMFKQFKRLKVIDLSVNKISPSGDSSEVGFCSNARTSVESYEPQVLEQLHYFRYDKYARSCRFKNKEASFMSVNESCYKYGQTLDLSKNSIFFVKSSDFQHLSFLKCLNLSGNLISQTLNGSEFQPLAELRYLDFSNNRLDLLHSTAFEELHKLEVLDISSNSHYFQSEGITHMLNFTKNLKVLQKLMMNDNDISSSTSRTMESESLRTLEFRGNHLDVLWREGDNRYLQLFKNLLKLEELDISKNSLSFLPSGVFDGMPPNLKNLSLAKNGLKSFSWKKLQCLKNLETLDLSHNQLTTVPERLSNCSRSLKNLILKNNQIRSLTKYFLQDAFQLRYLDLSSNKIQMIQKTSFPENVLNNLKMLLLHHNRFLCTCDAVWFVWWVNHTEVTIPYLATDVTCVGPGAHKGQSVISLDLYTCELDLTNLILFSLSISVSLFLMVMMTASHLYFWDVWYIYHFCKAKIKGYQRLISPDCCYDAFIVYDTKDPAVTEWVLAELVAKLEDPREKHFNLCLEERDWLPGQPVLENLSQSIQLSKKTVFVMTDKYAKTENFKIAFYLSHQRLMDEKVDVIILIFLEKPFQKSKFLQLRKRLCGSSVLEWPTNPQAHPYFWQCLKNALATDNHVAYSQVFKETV
Procedure, shortened: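 HEK293-Blue-hTLR7 cells (NF-κB/AP-1-driven SEAP reporter) were stimulated with R848 alongside serially diluted compound at 1% final DMSO for 20 h at 37 °C. Supernatant SEAP was then developed with QUANTI-Blue for 2 h at 37 °C and absorbance read at 620–655 nm; antagonism is measured as reduced reporter signal.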

Compared with `[2H]c1ccc2c(N3C[C@H](CN4CCN(c5ccc(N6CC7(CNCCO7)C6)nc5)CC4)O[C@H](C)C3)ccc(C#N)c2n1` [Example 152, 2-deuterio-5-[(2R,6S)-2-methyl-6-[[4-[6-(5-oxa-2,8-diazaspiro[3.5]nonan-2-yl)-3-pyridyl]piperazin-1-yl]methyl]morpholin-4-yl]quinoline-8-carbonitrile], `[2H]c1ccc2c(N3C[C@H](CN4CCN(c5ccc(N6CC7(CN(C)C7)C6)nc5)CC4)O[C@H](C)C3)ccc(C#N)c2n1` [Example 161, 2-deuterio-5-[(2R,6S)-2-methyl-6-[[4-[6-(6-methyl-2,6-diazaspiro[3.3]heptan-2-yl)-3-pyridyl]piperazin-1-yl]methyl]morpholin-4-yl]quinoline-8-carbonitrile] is 1.9-fold lower in IC50: 15 nM for the first, 8 nM for the second. The second is the more potent here.

First: [2H]c1ccc2c(N3C[C@H](CN4CCN(c5ccc(N6C[C@H]7C[C@@H]6CN7)nc5)CC4)O[C@H](C)C3)ccc(C#N)c2n1 [Example 153, 2-deuterio-5-[(2S,6R)-2-[[4-[6-[(1R,4R)-2,5-diazabicyclo[2.2.1]heptan-2-yl]-3-pyridyl]piperazin-1-yl]methyl]-6-methyl-morpholin-4-yl]quinoline-8-carbonitrile]
Second: [2H]c1ccc2c(N3C[C@H](CN4CCN(c5ccc(N[C@H]6CNC[C@H]6F)nc5)CC4)O[C@H](C)C3)ccc(C#N)c2n1 [Example 162, 2-deuterio-5-[(2S,6R)-2-[[4-[6-[[(3S,4R)-4-fluoropyrrolidin-3-yl]amino]-3-pyridyl]piperazin-1-yl]methyl]-6-methyl-morpholin-4-yl]quinoline-8-carbonitrile]
The IC50 of the first is 2.9-fold higher: 32 nM for the first, 11 nM for the second.

Compared with `C[C@@H]1CN(c2ccc(C#N)n3ncc(F)c23)C[C@H](CN2CCN(c3ccc(N4CC(C)(N)C4)nc3)CC2)O1` [Example 154, 4-[(2S,6R)-2-[[4-[6-(3-amino-3-methyl-azetidin-1-yl)-3-pyridyl]piperazin-1-yl]methyl]-6-methyl-morpholin-4-yl]-3-fluoro-pyrazolo[1,5-a]pyridine-7-carbonitrile], `CO[C@@H]1CN(c2ccc(N3CCN(C[C@H]4CN(c5ccc(C#N)n6ncc(F)c56)C[C@@H](C)O4)CC3)cn2)C[C@H]1N` [Example 166, 4-[(2S,6R)-2-[[4-[6-[(3R,4R)-3-amino-4-methoxy-pyrrolidin-1-yl]-3-pyridyl]piperazin-1-yl]methyl]-6-methyl-morpholin-4-yl]-3-fluoro-pyrazolo[1,5-a]pyridine-7-carbonitrile] is 1.5-fold lower in IC50: 32 nM for the first, 21 nM for the second.

Compared with `[2H]c1ccc2c(N3C[C@H](CN4CCN(c5cccc(N6CC(C)(N)C6)n5)CC4)O[C@H](C)C3)ccc(C#N)c2n1` [Example 155, 5-[(2S,6R)-2-[[4-[6-(3-amino-3-methyl-azetidin-1-yl)-2-pyridyl]piperazin-1-yl]methyl]-6-methyl-morpholin-4-yl]-2-deuterio-quinoline-8-carbonitrile], `[2H]c1ccc2c(N3C[C@H](CN4CC(c5cccc(N6CC(C)(N)C6)n5)C4)O[C@H](C)C3)ccc(C#N)c2n1` [Example 159, 5-[(2S,6R)-2-[[3-[6-(3-amino-3-methyl-azetidin-1-yl)-2-pyridyl]azetidin-1-yl]methyl]-6-methyl-morpholin-4-yl]-2-deuterio-quinoline-8-carbonitrile] is 1.7-fold higher in IC50: 18 nM for the first, 30 nM for the second.

`[2H]c1ccc2c(N3C[C@H](CN4CC(O)(c5ccc(N6CC(C)(N)C6)cc5)C4)O[C@H](C)C3)ccc(C#N)c2n1` [Example 156, 5-[(2S,6R)-2-[[3-[4-(3-amino-3-methyl-azetidin-1-yl)phenyl]-3-hydroxy-azetidin-1-yl]methyl]-6-methyl-morpholin-4-yl]-2-deuterio-quinoline-8-carbonitrile] and `C[C@@H]1CN(c2ccc(C#N)n3nccc23)C[C@H](CN2CC(c3ccc(N4CC(C)(N)C4)cc3)C2)O1` [Example 163, 4-[(2S,6R)-2-[[3-[4-(3-amino-3-methyl-azetidin-1-yl)phenyl]azetidin-1-yl]methyl]-6-methyl-morpholin-4-yl]pyrazolo[1,5-a]pyridine-7-carbonitrile] are within 1.5-fold of each other in IC50: 21 nM for the first, 22 nM for the second.

Compared with `C[C@@H]1CN(c2ccc(C#N)n3nccc23)C[C@H](CN2CC(c3ccc(N4CC(C)(N)C4)nc3)C2)O1` [Example 157, 4-[(2S,6R)-2-[[3-[6-(3-amino-3-methyl-azetidin-1-yl)-3-pyridyl]azetidin-1-yl]methyl]-6-methyl-morpholin-4-yl]pyrazolo[1,5-a]pyridine-7-carbonitrile], `C[C@@H]1CN(c2ccc(C#N)n3ncc(F)c23)C[C@H](CN2CC(c3ccc(N4CC(C)(N)C4)nc3)C2)O1` [Example 158, 4-[(2S,6R)-2-[[3-[6-(3-amino-3-methyl-azetidin-1-yl)-3-pyridyl]azetidin-1-yl]methyl]-6-methyl-morpholin-4-yl]-3-fluoro-pyrazolo[1,5-a]pyridine-7-carbonitrile] is 2.7-fold lower in IC50: 8 nM for the first, 3 nM for the second.

`C[C@@H]1CN(c2ccc(C#N)n3ncc(F)c23)C[C@H](CN2CC(c3ccc(N4CC(C)(N)C4)cc3)C2)O1` [Example 160, 4-[(2S,6R)-2-[[3-[4-(3-amino-3-methyl-azetidin-1-yl)phenyl]azetidin-1-yl]methyl]-6-methyl-morpholin-4-yl]-3-fluoro-pyrazolo[1,5-a]pyridine-7-carbonitrile] and `CO[C@@H]1CN(c2ccc(C3CN(C[C@H]4CN(c5ccc(C#N)n6ncc(F)c56)C[C@@H](C)O4)C3)cn2)C[C@H]1N` [Example 164, 4-[(2S,6R)-2-[[3-[6-[(3R,4R)-3-amino-4-methoxy-pyrrolidin-1-yl]-3-pyridyl]azetidin-1-yl]methyl]-6-methyl-morpholin-4-yl]-3-fluoro-pyrazolo[1,5-a]pyridine-7-carbonitrile] are within 1.5-fold of each other in IC50: 11 nM for the first, 10 nM for the second.

Compound `C[C@@H]1CN(c2ccc(C#N)n3ncc(F)c23)C[C@H](CN2CC(c3ccc(N4C[C@@H]5C[C@H]4CN5)nc3)C2)O1` [Example 165, 4-[(2S,6R)-2-[[3-[6-[(1S,4S)-2,5-diazabicyclo[2.2.1]heptan-2-yl]-3-pyridyl]azetidin-1-yl]methyl]-6-methyl-morpholin-4-yl]-3-fluoro-pyrazolo[1,5-a]pyridine-7-carbonitrile] has an IC50 of 7 nM.
